Data reported in patent US20240174695A1, “Spirocycle Containing Bicyclic Heteroaryl Compounds” (Protego Biopharma, Inc., priority 2022, published 2024).

system: Recombinant amyloidogenic full length light chain protein WIL-FL T46L; experiment: Differential Scanning Fluorimetry Assay (thermal shift assay); assay type: binding; settings: Thermal Shift Protein Stability Kit (Biotium), 96-well plates; protein and compounds incubated at RT for 30 min before adding the dye; further: test concentration or dose not given here
Experimental: Differential Scanning Fluorimetry Assay
The stabilization effects the compounds have on the immunoglobulin light chain protein were quantitively measured using a thermal shift assay. Recombinant amyloidogenic full length light chain protein WIL-FL T46L was produced in E. coli, purified, and used in the assay. The Thermal Shift Protein Stability Kit from Biotium was used and the assay was done in 96-well plates following the manufacturer's instructions. The protein and compounds were incubated at RT for 30 min before adding the dye and subjected to the thermal shift assay. The thermal stability (Tm) of each sample was then determined using standard curve fitting methods and compared to vehicle. Data are expressed as temperature shift: [Tm]compound−[Tm]vehicle.
Results • 0-0.5° C.=* • >0.5-1° C.=** • >1-1.5° C.=*** • >1.5-2.5° C.=**** • >2.5° C.=*****

Compound	DSF temperature shift: [Tm]compound−[Tm]vehicle
Cc1cc(OCC2(c3ccccc3)CC2)cn2nc(C(O)CN3CC4(CCN(c5nccn6cncc56)CC4)NC3=O)nc12 (stereo not shown) [Compound 57]	***** (>2.5° C.=*****)
CCC1(c2ccccc2)CCN(c2cc(C)c3nc(CCN4CC5(CCN(c6nccn7ccnc67)CC5)NC4=O)nn3c2)C1 (stereo not shown) [Compound 5]	***** (>2.5° C.=*****)
Cc1cc(OCC2(c3ccccc3)CC2)cn2nc(C(O)CN3CC4(CCN(c5nc(F)ccc5N)CC4)NC3=O)nc12 (stereo not shown) [Compound 53]	**** (>1.5-2.5° C.=****)
Cc1cc(N2CC[C@@](C)(c3ccccc3)C2)cn2nc(CCN3CC4(CN(c5ccnc(O)c5)C4)NC3=O)nc12 [Compound 27]	***** (>2.5° C.=*****)
Cc1cc(OCC2(c3ccccc3)CC2)cn2nc(C(O)CN3CC4(CCN(C(=O)C5(c6ccccn6)CC5)CC4)NC3=O)nc12 (stereo not shown) [Compound 29]	***** (>2.5° C.=*****)
Cc1cc(OC[C@H](C)c2ccccc2)cn2nc(C(O)CN3CC4(CCN(c5cncnc5)CC4)NC3=O)nc12 (stereo partly shown) [Compound 75]	**** (>1.5-2.5° C.=****)
Cc1cc(OC[C@H](C)c2ccccc2)cn2nc(C(O)CN3CC4(CCN(C(=O)c5ncn(C)n5)CC4)NC3=O)nc12 (stereo partly shown) [Compound 69]	**** (>1.5-2.5° C.=****)
Cc1nccnc1N1CCC2(CC1)CN(CCc1nc3c(C)cc(OC[C@H](C)c4ccccc4)cn3n1)C(=O)N2 [Compound 94]	**** (>1.5-2.5° C.=****)
Cc1cc(N2CCC(C)(c3ccccc3)C2)cn2nc(CCCN3C(=O)NC4(CCN(c5nccn6ccnc56)CC4)C3=O)nc12 (stereo not shown) [Compound 17]	***** (>2.5° C.=*****)
Cc1cc(OC[C@H](C)c2ccccc2)cn2nc(CCN3CC4(CCN(c5cc(Cl)nc(S(C)(=O)=O)n5)CC4)NC3=O)nc12 [Compound 99]	**** (>1.5-2.5° C.=****)
Cc1cc(OC[C@H](C)c2ccccc2)cn2nc(C(O)CN3CC4(CN(c5ccnc(O)n5)C4)NC3=O)nc12 (stereo partly shown) [Compound 85]	***** (>2.5° C.=*****)
Cc1nsc(N2CCC3(CC2)CN(CC(O)c2nc4c(C)cc(OCC5(c6ccccc6)CC5)cn4n2)C(=O)N3)n1 (stereo not shown) [Compound 51]	***** (>2.5° C.=*****)
CC[C@@]1(c2ccccc2)CCN(c2cc(C)c3nc(CCN4CC5(CCN(c6nccn7cncc67)CC5)NC4=O)nn3c2)C1 [Compound 7]	***** (>2.5° C.=*****)
Cc1cc(OC[C@H](C)c2ccccc2)cn2nc(C(O)CN3CC4(CCN(C(=O)Cc5ncnn5C)CC4)NC3=O)nc12 (stereo partly shown) [Compound 70]	**** (>1.5-2.5° C.=****)
Cc1cc(OC[C@H](C)c2ccccc2)cn2nc(CCN3CC4(CCN(C(=O)c5ncnn5C)CC4)NC3=O)nc12 [Compound 92]	**** (>1.5-2.5° C.=****)
COC(=O)c1cnc(N2CCC3(CC2)CN(CC(O)c2nc4c(C)cc(OCC5(c6ccccc6)CC5)cn4n2)C(=O)N3)c2nccn12 (stereo not shown) [Compound 136]	***** (>2.5° C.=*****)
Cc1cc(N2CCC(C)(c3ccccc3)C2)cn2nc(CCCN3CC4(CCN(c5nccn6ccnc56)CC4)NC3=O)nc12 (stereo not shown) [Compound 4]	***** (>2.5° C.=*****)
Cc1cc(OC[C@H](C)c2ccccc2)cn2nc(C(C)CN3CC4(CN(c5ccnc(O)c5)C4)NC3=O)nc12 (stereo partly drawn) [Compound 68, 2-(2-hydroxy-4-pyridyl)-7-[2-[8-methyl-6-[(2R)-2-phenylpropoxy]-[1,2,4]triazolo[1,5-a]pyridin-2-yl]propyl]-2,5,7-triazaspiro[3.4]octan-6-one]	**** (>1.5-2.5° C.=****)
CCOC(=O)c1ccc(N2CCC3(CC2)CN(CC(O)c2nc4c(C)cc(OCC5(c6ccccc6)CC5)cn4n2)C(=O)N3)cn1 (stereo not shown) [Compound 130]	*** (>1-1.5° C.=***)
CNC(=O)c1cc(N2CCC3(CC2)CC(=O)N(CC(C)(O)c2nc4c(C)cc(OC[C@H](C)c5ccccc5)cn4n2)C3)ccn1 (stereo partly shown) [Compound 131]	*** (>1-1.5° C.=***)
Cc1c(O)ncnc1N1CC2(CN(CC(O)c3nc4c(C)cc(OC[C@H](C)c5ccccc5)cn4n3)C(=O)N2)C1 (stereo partly shown) [Compound 89]	***** (>2.5° C.=*****)
Cc1cc(OC[C@H](C)c2ccccc2)cn2nc(C(O)CN3CC4(CN(c5ccnc(S(C)(=N)=O)c5)C4)NC3=O)nc12 (stereo partly shown) [Compound 82]	**** (>1.5-2.5° C.=****)

Compound	DSF temperature shift: [Tm]compound−[Tm]vehicle
Cc1cc(OC[C@H](C)c2ccccc2)cn2nc(C(O)CN3CC4(CCN(c5nccn6cnnc56)CC4)OC3=O)nc12 (stereo partly shown) [Compound 77]	**** (>1.5-2.5° C.=****)
Cc1cc(OC[C@H](C)c2ccccc2)cn2nc(CCN3CC4(CCN(C(=O)c5nncn5C)CC4)NC3=O)nc12 [Compound 93]	**** (>1.5-2.5° C.=****)
Cc1cc(OC[C@H](C)c2ccccc2)cn2nc(C(C)(O)CN3CC4(CCN(C(=O)c5nncn5C)CC4)NC3=O)nc12 (stereo partly shown) [Compound 65]	**** (>1.5-2.5° C.=****)
CC[C@]1(c2ccccc2)CCN(c2cc(C)c3nc(CCN4CC5(CCN(c6nccn7cnnc67)CC5)NC4=O)nn3c2)C1 [Compound 8]	***** (>2.5° C.=*****)
Cc1c(CCN2C(=O)NC3(CCN(c4nccn5ccnc45)CC3)C2=O)nc2cc(O[C@H](C)c3ccccc3)ccn12 [Compound 14, 8-(Imidazo[1,2-a]pyrazin-8-yl)-3-(2-(3-methyl-7-(1-phenylethoxy)imidazo[1,2-a]pyridin-2-yl)ethyl)-1,3,8-triazaspiro[4.5]decane-2,4-dione]	** (>0.5-1° C.=**)
Cc1ncnc(N2CCC3(CC2)CN(CCc2nc4c(C)cc(OC[C@H](C)c5ccccc5)cn4n2)C(=O)N3)c1C [Compound 118]	**** (>1.5-2.5° C.=****)
Cc1cc(OC[C@H](C)c2ccccc2)cn2nc(C(O)CN3CC4(CN(c5cccc(O)n5)C4)NC3=O)nc12 (stereo partly shown) [Compound 83]	***** (>2.5° C.=*****)
Cc1cc(OC[C@H](C)c2ccccc2)cn2nc(CCN3CC4(CCN(c5nccnc5F)CC4)NC3=O)nc12 [Compound 117]	**** (>1.5-2.5° C.=****)
Cc1cc(OC[C@H](C)c2ccccc2)cn2nc(C(C)(O)CN3CC4(CCN(C(=O)Cc5ncnn5C)CC4)NC3=O)nc12 (stereo partly shown) [Compound 66]	*** (>1-1.5° C.=***)
CNC(=O)c1cc(N2CCC3(CC2)CN(CC(O)c2nc4c(C)cc(OCC5(c6ccccc6)CC5)cn4n2)C(=O)N3)ccn1 (stereo not shown) [Compound 133]	***** (>2.5° C.=*****)
Cc1cc(OC[C@H](C)c2ccccc2)cn2nc(C(O)CN3CC4(CN(c5ccnc(C(=O)O)c5)C4)NC3=O)nc12 (stereo partly shown) [Compound 80]	***** (>2.5° C.=*****)
Cc1cc(OCC2(c3ccccc3)CC2)cn2nc(C(O)CN3CC4(CCN(C(=O)Cn5cnnn5)CC4)NC3=O)nc12 (stereo not shown) [Compound 33]	**** (>1.5-2.5° C.=****)
Cc1cc(OC[C@H](C)c2ccccc2)cn2nc(CCN3CC4(CCN(c5nccn6cnnc56)CC4)OC3=O)nc12 [Compound 116, (R)-8-([1,2,4]triazolo[4,3-a]pyrazin-8-yl)-3-(2-(8-methyl-6-(2-phenylpropoxy)-[1,2,4]triazolo[1,5-a]pyridin-2-yl)ethyl)-1-oxa-3,8-diazaspiro[4.5]decan-2-one]	**** (>1.5-2.5° C.=****)
COc1ccc(N2CCC3(CC2)CN(CCc2nc4c(C)cc(OC[C@H](C)c5ccccc5)cn4n2)C(=O)N3)c(C)n1 [Compound 141]	** (>0.5-1° C.=**)
Cc1cc(OCC2(c3ccccc3)CC2)cn2nc(C(O)CN3CC4(CCN(c5cccnc5C(F)(F)F)CC4)NC3=O)nc12 (stereo not shown) [Compound 35]	**** (>1.5-2.5° C.=****)
Cc1cc(OCC2(c3ccccc3)CC2)cn2nc(C(O)CN3CC4(CCN(c5ccc(F)nc5)CC4)NC3=O)nc12 (stereo not shown) [Compound 42]	**** (>1.5-2.5° C.=****)
CNC(=O)c1cc(N2CCC3(CC2)CN(Cc2nc4c(C)cc(OC[C@H](C)c5ccccc5)cn4n2)C(=O)N3)ccn1 [Compound 134]	**** (>1.5-2.5° C.=****)
Cc1cc(OCC2(c3ccccc3)CC2)cn2nc(C(O)CN3CC4(CCN(c5ccnc(Cl)c5)CC4)NC3=O)nc12 (stereo not shown) [Compound 37]	**** (>1.5-2.5° C.=****)
Cc1cc(N2CC[C@@](C)(c3ccccc3)C2)cn2nc(C(O)CN3CC4(CCN(c5ccnc(O)c5)CC4)NC3=O)nc12 (stereo partly shown) [Compound 21]	***** (>2.5° C.=*****)
Cc1cc(N2CC[C@@](C)(c3ccccc3)C2)cn2nc(C(C)(O)CN3CC4(CCN(c5ccnc(O)c5)CC4)NC3=O)nc12 (stereo partly shown) [Compound 20]	***** (>2.5° C.=*****)
Cc1cc(OC[C@H](C)c2ccccc2)cn2nc(CCN3CC4(CCN(C(=O)C5(c6ccccn6)CC5)CC4)NC3=O)nc12 [Compound 90]	*** (>1-1.5° C.=***)
